The test system of this assay is immobilized GST-tagged bait protein domains. Put plainly: ProP-PD phage selections (HD2 P8, sublibraries, HD2 P3, HD1 P8) with NGS and confidence level. It counts as binding, human. The note with it: for HD2_nc confidence / HD2_nc mean counts / HD2_nc count proportions: HD2 P8 nucleocytoplasmic sublibrary; for HD2_nucleus confidence: library HD2 P8 nucleus.
Setting [1] is: bait CLTC_Clathrin-propeller__Q00610_1_364, confidence level (4 = High, 2-3 = Medium, 1 = Low).
Setting [2] is: bait CLTC_Clathrin-propeller__Q00610_1_364, mean NGS counts over replicate selections.
Setting [3] is: bait CLTC_Clathrin-propeller__Q00610_1_364, mean proportion of NGS counts.
Setting [4] is: bait CLTC_Clathrin-propeller__Q00610_1_364, library HD2, benchmarking set of validated motif instances, TRUE = motif instance recovered in the ProP-PD selection.
[5] abbreviates: HD2 library, bait TNKS_TANK-peptide-bind__O95271_174_649, known motif instance of the benchmarking set found (TRUE) or not found (FALSE) among selected peptides.
The mark [6] stands for this setting: bait MAP1LC3B_ATG8 (Q9GZQ8 2-119), HD2 library, benchmark motif instance recovered in the ProP-PD selection (TRUE/FALSE).
Where [7] appears, read: library HD2, bait WDR5_WD_1234567_P61964_21_334, validated benchmark motif instance, in_library_check TRUE, TRUE/FALSE = instance recovered in ProP-PD selection.
[8] abbreviates: library HD2, bait TSG101_UEV__Q99816_1_145, validated benchmark motif instance, in_library_check TRUE, TRUE/FALSE = instance recovered in ProP-PD selection.
[9] abbreviates: library HD2, bait VASP_EVH1__P50552_1_114, validated benchmark motif instance, in_library_check TRUE, TRUE/FALSE = instance recovered in ProP-PD selection.
[10] abbreviates: library HD2, bait EPS15_EH__P42566_121_215, best matching peptide.
Where [11] appears, read: library HD2, bait EPS15_EH__P42566_121_215, confidence level of best matching peptide (4 High, 2-3 Medium, 1 Low).
The mark [12] stands for this setting: library HD2, bait EPS15_EH__P42566_121_215, whether the validated benchmark motif instance was recovered in the ProP-PD selection (TRUE/FALSE).
[13] abbreviates: library HD2, bait USP7_MATH-TRAF__Q93009_53_206, validated benchmark motif instance, in_library_check TRUE, TRUE/FALSE = instance recovered in ProP-PD selection.
[14] abbreviates: bait KPNA4_Arm (O00629 68-487), HD2 library, benchmark motif instance recovered in the ProP-PD selection (TRUE/FALSE).
Where [15] appears, read: bait PEX14_Pex14__O75381_16_84, HD2 library, whether the validated benchmark motif instance was recovered in the ProP-PD selection (TRUE/FALSE).
[16] abbreviates: HD2 library, bait TLN1_PTB__Q9Y490_309_401, known motif instance of the benchmarking set found (TRUE) or not found (FALSE) among selected peptides.

Consider PIPHDGNLYPRLYPELSQY [SDCBP 45-49], for which the motif_found result (HD2 library, bait PDCD6IP_Alix-V-domain__Q8WUM4_360_702, benchmark motif instance, in_library_check FALSE, in_library_coverage 0) is on record as “FALSE”.

For PLIDLPLIDFCDTPEA, the HD2_nc confidence under setting [1] turned out to be 4. Also, under setting [2], the HD2_nc mean counts is listed as 154.7. For the same substance, under setting [3], the HD2_nc count proportions came out at 0.002602.

Regarding PLTKDVSLLDLDDFNPVST [AP3B1], the motif_found result under setting [4] was “FALSE”.

Turning to PLYTSPSLPNITLGLP, where the note is “bait ANKRA2_Ank__Q9H9E1_142_313, library HD2, best matching peptide”, the best_specificity amounted to 1. The substance further had a best_confidence (bait ANKRA2_Ank__Q9H9E1_142_313, library HD2, confidence level of best matching peptide (4 = High, 2 or 3 = Medium, 1 = Low)) of 3.

Where the note is “library HD, bait ANKRA2_Ank__Q9H9E1_142_313, ProP-PD peptides with disease-related mutations”, PMLPDLTLEAWPSTDK showed a confidence of 3.

In the case of PPAEEPEARPDGEGSPGKARPG, under setting [5], the motif_found result is “FALSE”.

In the case of PPAGLNSSWVELPMNSSNG, under setting [6], the motif_found result was “FALSE”.

For PPAPVNDEPIVIED-------, where the note is “HD2 library, bait SUMO1_SUMO__P63165_1_101, known motif instance of the benchmarking set found (TRUE) or not found (FALSE) among selected peptides”, the motif_found entry is on record as “FALSE”.

The substance PPDTKLSKLDVLLLAT yielded an HD2_nucleus confidence (bait SIN3A_PAH__Q96ST3_295_383) of 4.

Under “bait YAP1_WW_1_P46937_169_207, library HD”, PPGPPPPYHAHAHLHH returned an HD confidence of 3. The substance also yielded a p3_HD2 confidence (bait YAP1_WW_1_P46937_169_207, library HD2 P3) of 2. The same substance registered a p3_HD2 count proportions (bait YAP1_WW_1_P46937_169_207, library HD2 P3, mean normalised NGS counts) of 0.001797. The same substance gave a p3_HD2 mean counts (bait YAP1_WW_1_P46937_169_207, library HD2 P3, mean raw NGS counts, all selections) of 44.67. This substance had an HD2 confidence (bait YAP1_WW_1_P46937_169_207, library HD2 P8) of 4. For the same substance, the HD2_nucleus confidence (bait YAP1_WW_1_P46937_169_207) came to 4. Further, under “bait YAP1_WW_1_P46937_169_207, library HD, mean normalised NGS counts”, the HD count proportions is 0.02186. In addition, the HD mean counts (bait YAP1_WW_1_P46937_169_207, library HD, mean raw NGS counts, all selections) stood at 187.3.

As for PPLNPHGAARAEVYLRKCTFD, under setting [7], the motif_found result is “FALSE”.

For PPLNPHGSARAEVHLRKSAFD, under setting [7], the motif_found entry is on record as “FALSE”.

For PPMGEVVTPTAPQEPPESVR, the motif_found result under setting [8] is listed as “FALSE”.

Turning to PPPEDFPLPPPPLAGDGDD, the motif_found entry under setting [9] is given as “FALSE”.

As for PPPIEESFPPAPLEEEIFP, under setting [9], the motif_found entry was “FALSE”.

With PPPPPEDFPLPPPPLAGDG, under setting [9], the motif_found result is “FALSE”.

In the case of PPRLPELAPTAPLPYPAPEA, the motif_found result (HD2 library, bait TSG101_UEV__Q99816_1_145, known motif instance of the benchmarking set found (TRUE) or not found (FALSE) among selected peptides) is listed as “FALSE”.

Under “HD2 library, bait TNKS_TANK-peptide-bind__O95271_174_649, best matching selected peptide”, PQLPHLQRSPPDGQSF gave a best_specificity of 1. Further, the best_confidence (HD2 library, bait TNKS_TANK-peptide-bind__O95271_174_649, confidence level of best matching selected peptide) turned out to be 2. Also, the motif_found entry under setting [5] is given as “TRUE”.

As to PQPKLPYLPTFPFSMP, where the note is “bait ANKRA2_Ank__Q9H9E1_142_313, HD2 P8 selection, confidence level -4 to 4: 4 = High, 3 or 2 = Medium, 1 = Low, 0 = Filtered/Noise”, the HD2 confidence stood at 2.

PQYLNPFDEPEAFVTI displayed a best_specificity under setting [10] of 1. Under setting [11], this substance gave a best_confidence of 2. Moreover, under setting [12], the motif_found result was “TRUE”.

Turning to PREHQTGSARSEGYYPISKKE, the motif_found entry under setting [7] is on record as “FALSE”.

Take PSENSNEFEWEDDLPKPKTTEVIR: the motif_found result (library HD2, bait KLC1_TPR__Q07866_203_497, whether the validated benchmark motif instance was recovered in the ProP-PD selection (TRUE/FALSE)) is recorded as “FALSE”.

Turning to PSNPDLDAGVSEHSGDWLD, the motif_found entry under setting [13] is listed as “FALSE”.

As to PSTNPFVAAAGPSVAS, under setting [10], the best_specificity came out at 1. The same substance had a best_confidence under setting [11] of 2. The motif_found entry under setting [12] is recorded as “TRUE”.

Regarding PSTRKDYPAAKRVKLDSVRVLR, the motif_found result under setting [14] is listed as “FALSE”.

Regarding PVLEKDDLMDMDASQQNLF [HIP1], under setting [4], the motif_found entry is recorded as “FALSE”.

For the substance PYGDDMTVRKQPEGNPKPDIIE, the motif_found result under setting [5] is recorded as “FALSE”.

With QASALSFPAPPSRPLPPDPV [ADAM15], under “bait CRK_SH3_1_P46108_124_198, library HD2, benchmarking set of validated motif instances, TRUE = motif instance recovered in the ProP-PD selection”, the motif_found result is “FALSE”.

On to “QDLLELKSVIKLQAWWRGTMIRR,DLLELKSVIKLQAWWRGTMIRREIGGFKMPK [IQCG 397-411]”, for which the motif_found result (HD2 library, bait CALM1_EF-hand__P0DP23_2_149, benchmark motif instance, in_library_check FALSE, in_library_coverage 0) was “FALSE”.

In the case of QDYNETDWSQEFISEVTDP, under setting [15], the motif_found result was “FALSE”.

For QELLSVGSKRRRTGGSLRGN, the motif_found result under setting [14] was “FALSE”.

Turning to QELQEEKPSSSHLVSRPST, the motif_found result under setting [13] is on record as “FALSE”.

Take QENMRSSPNPFITGLTRTN: under setting [12], the motif_found entry is recorded as “FALSE”.

As to QEPPESVRPSAPPAELEVQA, the motif_found entry under setting [8] is listed as “FALSE”.

For the substance QERPLTNKLKRKRRPTSGLHPE, the motif_found result under setting [14] is recorded as “FALSE”.

Regarding QFSLYTSPSLPNISLGLQATVTVT [HDAC5], under “bait ANKRA2_Ank__Q9H9E1_142_313, library HD2, benchmarking set of validated motif instances, TRUE = motif instance recovered in the ProP-PD selection”, the motif_found result is reported as “TRUE”.

As to QGSWVELHFSNNGNGG, the motif_found result was “TRUE” (bait MAP1LC3A_ATG8 (Q9H492 2-121), HD2 library, benchmark motif instance recovered in the ProP-PD selection (TRUE/FALSE)) and “TRUE” under setting [6]. For the same substance, the best_confidence stood at 3 (bait MAP1LC3A_ATG8 (Q9H492 2-121), HD2 library, confidence level (1-4) of best matching peptide) and 3 (bait MAP1LC3B_ATG8 (Q9GZQ8 2-119), HD2 library, confidence level (1-4) of best matching peptide). Also, the best_specificity amounted to 1 (bait MAP1LC3A_ATG8 (Q9H492 2-121), HD2 library, specificity score of best matching peptide) and 1 (bait MAP1LC3B_ATG8 (Q9GZQ8 2-119), HD2 library, specificity score of best matching peptide).

QLSPNAKEFVYNGGGS came in with a best_confidence (bait PABP-B_PABP__P11940_544_623, HD2 library, confidence level (1-4) of best matching selected peptide) of 4. In addition, the best_specificity (bait PABP-B_PABP__P11940_544_623, HD2 library, specificity score of best matching selected peptide) stood at 1. In addition, under “bait PABP-B_PABP__P11940_544_623, HD2 library, whether the validated benchmark motif instance was recovered in the ProP-PD selection (TRUE/FALSE)”, the motif_found entry is “TRUE”.

For the substance QMPADTPPPAYLPPEDPM, under “bait NEDD4_WW_4 (P46934 890-928), HD2 library, benchmark motif instance recovered in the ProP-PD selection (TRUE/FALSE)”, the motif_found entry is on record as “FALSE”.

Take QQGTSDAWVDQFTRPVNTS: the motif_found entry under setting [15] is “FALSE”.

As for QQHEGPSLNPFDEEDLSSP, the motif_found entry under setting [12] was “FALSE”.

Consider “QQKQRQKHFNRQIPAAASLIQTAWRCYAAENPDSSTWKIYIRKAPRSHTLLSPSPKPKKSVVVKKKKFKLDKDNGVTPGEKMLTVPHITCDPPEERRLDHFSVDGYDSSVRKSPTLLEVSMPHFMRTNSFAEDLDLEGETLLTPITHISQLREHHRATIKVIRRMQYFVAKKKFQQARKP [KCNQ1]”, for which the motif_found entry (bait CALM1_EF-hand__P0DP23_2_149, library HD2, benchmarking set of validated motif instances, TRUE = motif instance recovered in the ProP-PD selection) is given as “FALSE”.

In the case of QQQLNWKQDSNPLYKSAITTTI, the motif_found entry under setting [16] is “FALSE”.

For the substance QQVPAPPLPAKKNLPT, for the setting “bait CRK_SH3_1_P46108_124_198, HD2 P3 library, confidence level (4 = High, 2-3 = Medium, 1 = Low)”, the p3_HD2 confidence is 4. In addition, the p3_HD2 mean counts (bait CRK_SH3_1_P46108_124_198, HD2 P3 library, mean NGS counts over replicate selections) worked out at 120.7. This substance gave a p3_HD2 count proportions (bait CRK_SH3_1_P46108_124_198, HD2 P3 library, mean proportion of NGS counts) of 0.00436.

Regarding QRTNPSPTNPFSSDLQKTF, the motif_found entry under setting [12] is recorded as “FALSE”.

Turning to QSGSGGIFPPPPDDDIYDG, the motif_found entry under setting [9] is recorded as “FALSE”.

In the case of QSKPLVDIDLISFDDD, under setting [1], the HD2_nc confidence was 4. Under setting [2], this substance displayed an HD2_nc mean counts of 25.67. Moreover, the HD2_nc count proportions under setting [3] was 0.0005729.

In the case of RARAKWDTANNPLYKEATSTFT, the motif_found result under setting [16] is “FALSE”.

For RCTSPGGSYGHLSIGTMSPSLG, the motif_found entry (bait SUFU_SUFU__Q9UMX1_1_484, HD2 library, whether the validated benchmark motif instance was recovered in the ProP-PD selection (TRUE/FALSE)) is given as “FALSE”.

The values are drawn from paper PMC8769072, “Proteome‐scale mapping of binding sites in the unstructured regions of the human proteome” (Molecular Systems Biology, 2022).
